One assay concerns the target Beta-amylase (Hordeum vulgare, UniProt P16098). Description: Inhibitory activity against barley beta amylase.
Assay [1] in a line: Inhibitory activity against baker's yeast alpha glucosidase. Also noted: species or system Saccharomyces cerevisiae.
The target in a further assay is Alpha-amylase (Bacillus licheniformis, UniProt P06278). Kind of assay: Inhibitory activity against Bacillus licheniformis alpha amylase.
The target of assay [2] is Alpha-amylase (Bacillus licheniformis) (UniProt P06278). Kind of assay: Inhibitory activity against Bacillus licheniformis alpha amylase at 200 uM.
Another assay deals with Saccharomyces cerevisiae. Description: Inhibitory activity against baker's yeast alpha glucosidase at 200 uM.
Assay [3] addresses Beta-amylase (Hordeum vulgare) (UniProt P16098). Kind of assay: Inhibitory activity against barley beta amylase at 200 uM.

The source of these data is ChEMBL document CHEMBL1141244, “Sulfonamide chalcone as a new class of alpha-glucosidase inhibitors” (Bioorg Med Chem Lett, 2005).

Activity calls are given as the source filed them. The calls are words filed in the database; no cut-off is given here. Bounds are passed on as bounds.

Chain of Beta-amylase (P16098 whole entry): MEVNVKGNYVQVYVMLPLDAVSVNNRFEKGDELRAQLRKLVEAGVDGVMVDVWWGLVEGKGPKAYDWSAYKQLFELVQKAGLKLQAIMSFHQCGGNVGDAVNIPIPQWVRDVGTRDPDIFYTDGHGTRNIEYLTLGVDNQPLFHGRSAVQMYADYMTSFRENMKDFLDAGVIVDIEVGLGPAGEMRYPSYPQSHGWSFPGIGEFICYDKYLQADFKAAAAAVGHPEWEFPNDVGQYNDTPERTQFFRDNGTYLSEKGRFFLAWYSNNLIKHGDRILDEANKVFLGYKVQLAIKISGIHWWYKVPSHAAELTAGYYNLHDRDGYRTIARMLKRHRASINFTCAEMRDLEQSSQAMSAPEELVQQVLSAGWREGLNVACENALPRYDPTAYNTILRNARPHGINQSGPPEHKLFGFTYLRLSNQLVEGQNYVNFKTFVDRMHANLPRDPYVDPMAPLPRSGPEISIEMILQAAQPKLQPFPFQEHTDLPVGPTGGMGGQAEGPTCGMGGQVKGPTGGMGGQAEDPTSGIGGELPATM
Chain of Beta-amylase (Hordeum vulgare) (P16098 whole entry): as above
Chain of Alpha-amylase (P06278 whole entry): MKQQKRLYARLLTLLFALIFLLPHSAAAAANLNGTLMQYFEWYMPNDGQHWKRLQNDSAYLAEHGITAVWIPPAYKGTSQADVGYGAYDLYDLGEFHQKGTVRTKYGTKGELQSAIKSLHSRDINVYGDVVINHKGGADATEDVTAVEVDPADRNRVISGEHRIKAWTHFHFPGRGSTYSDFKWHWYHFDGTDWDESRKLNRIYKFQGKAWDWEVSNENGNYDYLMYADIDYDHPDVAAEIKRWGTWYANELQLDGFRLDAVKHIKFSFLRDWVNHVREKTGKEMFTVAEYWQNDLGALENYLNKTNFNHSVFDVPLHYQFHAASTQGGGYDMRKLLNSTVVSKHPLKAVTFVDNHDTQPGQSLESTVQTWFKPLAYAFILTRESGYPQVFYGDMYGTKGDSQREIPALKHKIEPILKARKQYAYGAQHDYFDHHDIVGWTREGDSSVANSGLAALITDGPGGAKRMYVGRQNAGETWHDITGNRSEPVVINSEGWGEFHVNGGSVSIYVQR
Chain of Alpha-amylase (Bacillus licheniformis) (P06278 whole entry): as above

For `Cc1ccc(S(=O)(=O)Nc2cccc(C(=O)/C=C/c3ccc(O)cc3)c2)cc1`, the IC50 at Beta-amylase (read-out: IC50) came out at 201 µM; in assay [1] it was 12.4 µM; on Alpha-amylase (read-out: IC50), 37.3 µM. In assay [1], this molecule came in with a Ki of 7.38 µM.

Regarding `C[C@H]1O[C@H](O[C@H]2[C@H](O)[C@@H](O)[C@@H](O[C@H]3[C@H](O)[C@@H](O)C(O)O[C@@H]3CO)O[C@@H]2CO)[C@H](O)[C@@H](O)[C@@H]1N[C@H]1C=C(CO)[C@@H](O)[C@H](O)[C@H]1O` (stereo not given in full) [ACARBOSE], the midpoint of inhibition in assay [1], the IC50, lay at 60.8 µM.

Turning to `Cc1ccc(S(=O)(=O)Nc2ccc(C(=O)/C=C/c3ccc(O)cc3)cc2)cc1`, the IC50 on Beta-amylase (read-out: IC50) amounted to 247 µM; in assay [1], 0.98 µM; on Alpha-amylase (read-out: IC50) it was 87.8 µM. In assay [1], this molecule gave a Ki of 0.58 µM.

For `Nc1ccc(C(=O)/C=C/c2ccc(O)c(O)c2)cc1`, the IC50 on Beta-amylase (read-out: IC50) was 127 µM; in assay [1], 62.1 µM; against Alpha-amylase it was “Not Active”.

Regarding `O=c1c(O)c(-c2cc(O)c(O)c(O)c2)oc2cc(O)cc(O)c12`, the result (in assay [2]; with Saccharomyces cerevisiae; in assay [3]) was inactive.

With `O=C(/C=C/c1cccc(O)c1)c1ccc(O)cc1`, the outcome (in assay [2]; in the assay on Saccharomyces cerevisiae; in assay [3]) was inactive.

For `O=C(/C=C/c1cc(O)ccc1O)c1ccccc1`, the result (in assay [2]; with Saccharomyces cerevisiae; in assay [3]) was inactive.

`O=C(/C=C/c1ccc(O)cc1)c1ccccc1`: the result (in assay [2]; in the assay on Saccharomyces cerevisiae; in assay [3]) was inactive.

On to `O=C(/C=C/c1ccc(O)c(O)c1)c1ccccc1`, for which the outcome (in assay [2]; in the assay with Saccharomyces cerevisiae; in assay [3]) was inactive.

Consider `O=C(/C=C/c1cccc(O)c1O)c1ccccc1`, for which the outcome (in assay [2]; in the assay with Saccharomyces cerevisiae; in assay [3]) was inactive.

Turning to `Nc1cccc(C(=O)/C=C/c2ccc(O)c(O)c2)c1`, the IC50 result on Beta-amylase was “Not Active”; in assay [1], greater than 200 µM; against Alpha-amylase, “Not Active”.

Regarding `Cc1ccc(S(=O)(=O)Nc2ccc(C(=O)/C=C/c3ccc(O)c(O)c3)cc2)cc1`, the figures for the IC50 (on Beta-amylase (read-out: IC50); in assay [1]; at Alpha-amylase (read-out: IC50)) were 65 µM, 0.4 µM and 194 µM, respectively. In assay [1], this molecule showed a Ki of 0.24 µM.

For `O=C(/C=C/c1ccc(O)cc1)c1ccc(O)cc1`, the result (in assay [2]; with Saccharomyces cerevisiae; in assay [3]) was inactive.

With `O=C(/C=C/c1ccc(O)cc1O)c1ccccc1`, the result (in assay [2]; with Saccharomyces cerevisiae; in assay [3]) was inactive.

With `O=c1c(O)c(-c2ccc(O)c(O)c2)oc2cc(O)cc(O)c12`, the outcome (in assay [2]; with Saccharomyces cerevisiae; in assay [3]) was inactive.

In the case of `Nc1ccc(C(=O)/C=C/c2ccc(O)cc2)cc1`, the IC50 result is “Not Active” against Beta-amylase, 41 µM in assay [1] and 269 µM on Alpha-amylase (read-out: IC50).

`Oc1cc(O)c2c(c1)O[C@H](c1ccc(O)c(O)c1)[C@@H](O)C2`: the result (in assay [2]; with Saccharomyces cerevisiae; in assay [3]) was inactive.

Consider `O=C(/C=C/c1ccccc1O)c1ccccc1`, for which the result (in assay [2]; in the assay on Saccharomyces cerevisiae; in assay [3]) was inactive.

On to `Cc1ccc(S(=O)(=O)Nc2cccc(C(=O)/C=C/c3ccc(O)c(O)c3)c2)cc1`, for which the IC50 at Beta-amylase (read-out: IC50) amounted to 24.8 µM; in assay [1], 15.6 µM; at Alpha-amylase (read-out: IC50) it was 16.8 µM. In assay [1], this molecule yielded an inhibition constant Ki of 9.25 µM.

`Oc1cc(O)c2c(c1)O[C@@H](c1ccc(O)c(O)c1)[C@H](O)C2`: the outcome (in assay [2]; with Saccharomyces cerevisiae; in assay [3]) was inactive.

Take `Nc1cccc(C(=O)/C=C/c2ccc(O)cc2)c1`: the IC50 at Beta-amylase (read-out: IC50) is 206 µM; in assay [1], greater than 200 µM; on Alpha-amylase, “Not Active”.

The term IC50 denotes the concentration needed to halve the response being measured. One may read the Ki as the equilibrium dissociation constant of an inhibitor or competing ligand from its target.
